Patent US12370232B2, “Use of polyphenol containing sugar cane extracts for preventing, improving or treating a skin condition” (priority 2017, dated 2025)
pEC50: −log10 of the molar value. Several values for one entry are separate records, joined by “and”; a condition that tells them apart may be missing. Equal values may be shown once. Read-outs that look alike come from different tables or passages of the source. Where a SMILES comes first, the peptide text is derived from it. The star is where a group is joined. MeOSuc = COC(=O)CCC(=O)*; CH2Cl = ClC*

Tests used:
[1] = tested on: collagenase; test: Collagenase inhibition assay; type: biochemical
Protocol: A collagenase inhibition assay was performed to determine the collagenase inhibition of an extract derived from sugar cane of the present disclosure. Two batches (replicate 1 and replicate 2) of an extract derived from sugar cane of the present disclosure in a concentration of from 0.17 mg/mL to 350 mg/mL were tested for the ability to inhibit collagenase.
To measure collagenase inhibition potential of an extract derived from sugar cane of the present disclosure, a test sample of an extract derived from sugar cane was mixed sequentially with type-I collagen substrate and a diluted collagenase enzyme solution. After incubation for 30 minutes at 37° C., fluorescence was measured at excitation maxima of 495 nm and emission maxima of 515 nm. The inhibition percentage was calculated as follows.
[formula] Wherein, • Abssample=absorbance of the sample test, • Absblank=absorbance of the sample blank, • Abspositive control=absorbance of the positive control, and • Absnegative control=absorbance of the negative control.
1,10-phenanthroline was used as a positive assay control. Two batches (replicate 1 and replicate 2) of 1,10-phenanthroline in a concentration of from 1.7 μM to 3500 μM were used in the positive control assay. A negative control was performed with a buffer and a collagen substrate but without collagenase enzyme.

[2] = target: T1, telomerase (Homo sapiens, UniProt O14746); test: Cellular telomerase activity assay (TRAP); type: cell-based; set-up: Telomerase activity Replicate 1 / Telomerase activity Replicate 2 / Telomerase activity Average: unit not given here
T1 construct: endogenous in cells
From the text: A cellular telomerase activity assay determines the ability of a test material to stimulate telomerase activity in human cells, which translates to the material's anti-aging potential. […]
In the cellular telomerase activity assay, telomerase activity level of human cells treated with (and without) a test sample of an extract derived from sugar cane of the present disclosure was monitored. Specifically, a telomeric repeat amplification protocol (TRAP assay) was used for the assay. The TRAP assay was divided into three main steps: extension, amplification, and detection of telomerase products. In the extension phase, telomeric sequences were added to the telomerase substrate, a non-telomeric oligonucleotide, through the action of telomerase present in the cell extract. The products of the extension step were amplified by PCR using specific primers and finally were analyzed via electrophoresis.
Cycloastragenol, a known telomerase activator, was used as an assay control. Two batches (replicate 1 and replicate 2) of cycloastragenol in a concentration from 0.06 μM to 3 μM were used in the control assay.

[3] = target: T2, elastase (Homo sapiens, UniProt P08246); test: Elastase inhibition assay; type: biochemical
T2 sequence (P08246 30-247): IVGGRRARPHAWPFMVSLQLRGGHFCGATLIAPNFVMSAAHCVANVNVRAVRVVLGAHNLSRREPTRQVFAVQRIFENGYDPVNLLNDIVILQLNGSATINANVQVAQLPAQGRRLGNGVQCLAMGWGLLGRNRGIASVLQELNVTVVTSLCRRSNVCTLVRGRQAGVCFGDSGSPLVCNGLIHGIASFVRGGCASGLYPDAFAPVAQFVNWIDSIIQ
Protocol: An elastase inhibition assay was performed to determine the elastase inhibition potential of an extract derived from sugar cane of the present disclosure. […] To measure elastase inhibitory potential of an extract derived from sugar cane of the present disclosure, a test sample of an extract derived from sugar cane was mixed and incubated with N-methoxysuccinyl-[…]-chloromethyl ketone in tris-HCl buffer for 15 min. Then elastase was added to the mixture and incubated for 15 min. […] [formula] Wherein, • Abssample+elastase=absorbance of test sample after incubation with elastase, • Abssample-elastase=absorbance of test sample before incubation with elastase, • Absblank+elastase=absorbance of blank after incubation with elastase, and • Absblank-elastase=absorbance of blank before incubation with elastase. N-methoxysuccinyl-[…]-chloromethyl ketone, a human leukocyte elastase (HLE) inhibitor, was used as an assay control.

[4] = tested on: melanin production in human skin cells; test: Cellular melanin pigmentation inhibition assay; type: cell-based
Protocol: A melanin production inhibition assay was performed to determine the potential of an extract derived from sugar cane of the present disclosure to inhibit melanin production.
To measure melanin pigmentation inhibition potential of an extract derived from sugar cane of the present disclosure, a test sample of an extract derived from sugar cane, in combination with theophylline, was added to a pre-incubated human skin cell culture. After incubating for 72 hours, the cells were washed with phosphate-buffered saline (PBS), lysed in 1 M NaOH, and boiled for 5 minutes to solubilize the melanin. The inhibition rates of the lysates were measured at 490 nm and expressed as a percentage relative to the value of the untreated control.
Chloroquine, a known melanin production inhibitor, was used as an assay control. Two batches (replicate 1 and replicate 2) of chloroquine in a concentration from 0.31 μM to 10 μM were used in the control assay.

[5] = read-out: Inhibition (%) Average
[6] = read-out: Inhibition (%) Relicate 1
[7] = read-out: Inhibition (%) Replicate 2
[8] = Homo sapiens, read-out: Melanin inhibition (%) Average
[9] = Homo sapiens, read-out: Melanin inhibition (%) Replicate 1
[10] = Homo sapiens, read-out: Melanin inhibition (%) Replicate 2

T1 sequence (O14746 whole entry): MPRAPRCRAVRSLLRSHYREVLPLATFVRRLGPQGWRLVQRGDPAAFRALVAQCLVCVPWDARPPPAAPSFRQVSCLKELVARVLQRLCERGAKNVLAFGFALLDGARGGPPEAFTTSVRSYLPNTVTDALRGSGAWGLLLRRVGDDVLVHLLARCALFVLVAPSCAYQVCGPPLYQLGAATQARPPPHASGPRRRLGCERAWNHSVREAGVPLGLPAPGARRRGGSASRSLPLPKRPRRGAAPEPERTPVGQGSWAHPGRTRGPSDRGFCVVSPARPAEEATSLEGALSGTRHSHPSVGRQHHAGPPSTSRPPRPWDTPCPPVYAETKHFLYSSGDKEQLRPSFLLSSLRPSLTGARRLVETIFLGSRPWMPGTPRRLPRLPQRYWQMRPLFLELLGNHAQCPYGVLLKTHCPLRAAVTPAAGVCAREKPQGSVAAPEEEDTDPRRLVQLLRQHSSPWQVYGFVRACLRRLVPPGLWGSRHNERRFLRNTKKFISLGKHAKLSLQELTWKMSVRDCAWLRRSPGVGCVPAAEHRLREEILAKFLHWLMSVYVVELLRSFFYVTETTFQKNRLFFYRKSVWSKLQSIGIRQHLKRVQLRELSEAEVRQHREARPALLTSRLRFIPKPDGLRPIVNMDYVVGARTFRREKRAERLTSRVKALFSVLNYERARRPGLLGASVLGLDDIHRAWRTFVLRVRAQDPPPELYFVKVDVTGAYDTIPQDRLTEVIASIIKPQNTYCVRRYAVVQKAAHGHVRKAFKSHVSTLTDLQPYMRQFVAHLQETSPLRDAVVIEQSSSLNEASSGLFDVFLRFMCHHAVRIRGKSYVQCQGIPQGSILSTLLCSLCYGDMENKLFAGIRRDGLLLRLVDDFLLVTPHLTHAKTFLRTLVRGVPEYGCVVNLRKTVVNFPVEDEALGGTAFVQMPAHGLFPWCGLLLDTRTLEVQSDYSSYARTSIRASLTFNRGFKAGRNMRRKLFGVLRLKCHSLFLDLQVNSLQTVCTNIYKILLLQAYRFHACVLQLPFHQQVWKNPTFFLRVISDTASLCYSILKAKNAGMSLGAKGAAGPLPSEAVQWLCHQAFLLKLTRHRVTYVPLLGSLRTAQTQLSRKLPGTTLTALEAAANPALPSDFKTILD

c1cnc2c(c1)ccc1cccnc12 [1,10-phenanthroline]
Concentration inducing the maximum inhibition (collagenase) [1]: 3.50 mM
Inhibition (%) Average ([1]; 1.71 uM): −29.05%
Inhibition (%) Relicate 1 ([1]; 1.71 uM): −29.63%
Inhibition (%) Replicate 2 ([1]; 1.71 uM): −28.47%
Inhibition (%) Average ([1]; 3.42 uM): −25.76%
Inhibition (%) Relicate 1 ([1]; 3.42 uM): −27.08%
Inhibition (%) Replicate 2 ([1]; 3.42 uM): −24.45%
Inhibition (%) Average ([1]; 6.84 uM): −21.65%
Inhibition (%) Relicate 1 ([1]; 6.84 uM): −22.85%
Inhibition (%) Replicate 2 ([1]; 6.84 uM): −20.46%
Inhibition (%) Average ([1]; 13.67 uM): −6.70%
Inhibition (%) Relicate 1 ([1]; 13.67 uM): −7.40%
Inhibition (%) Replicate 2 ([1]; 13.67 uM): −6.00%
Inhibition (%) Average ([1]; 27.34 uM): 24.95%
Inhibition (%) Relicate 1 ([1]; 27.34 uM): 25.64%
Inhibition (%) Replicate 2 ([1]; 27.34 uM): 24.25%
Inhibition (%) Average ([1]; 54.69 uM): 58.50%
Inhibition (%) Relicate 1 ([1]; 54.69 uM): 57.26%
Inhibition (%) Replicate 2 ([1]; 54.69 uM): 59.74%
Inhibition (%) Average ([1]; 109.38 uM): 71.66%
Inhibition (%) Relicate 1 ([1]; 109.38 uM): 71.77%
Inhibition (%) Replicate 2 ([1]; 109.38 uM): 71.54%
Inhibition (%) Average ([1]; 218.75 uM): 75.46%
Inhibition (%) Relicate 1 ([1]; 218.75 uM): 75.14%
Inhibition (%) Replicate 2 ([1]; 218.75 uM): 75.78%
Inhibition (%) Average ([1]; 437.50 uM): 77.01%
Inhibition (%) Relicate 1 ([1]; 437.50 uM): 76.63%
Inhibition (%) Replicate 2 ([1]; 437.50 uM): 77.39%
Inhibition (%) Average ([1]; 875.00 uM): 77.37%
Inhibition (%) Relicate 1 ([1]; 875.00 uM): 77.01%
Inhibition (%) Replicate 2 ([1]; 875.00 uM): 77.72%
Inhibition (%) Average ([1]; 1750.00 uM): 77.27%
Inhibition (%) Relicate 1 ([1]; 1750.00 uM): 76.83%
Inhibition (%) Replicate 2 ([1]; 1750.00 uM): 77.71%
Inhibition (%) Average ([1]; 3500.00 uM): 78.99%
Inhibition (%) Relicate 1 ([1]; 3500.00 uM): 79.75%
Inhibition (%) Replicate 2 ([1]; 3500.00 uM): 78.24%
Maximum inhibition achieved (collagenase) ([1]; at 3.50 mM): 78.99%
pEC50 ([1]; effective concentration at 50% of maximal inhibition): 4.57
EC50 (collagenase inhibition) ([1]; same value in mass units): (4.84 μg/mL)

CC(C)(O)[C@@H]1CC[C@](C)([C@H]2[C@@H](O)C[C@@]3(C)[C@@H]4C[C@H](O)[C@H]5C(C)(C)[C@@H](O)CC[C@@]56C[C@@]46CC[C@]23C)O1 [Cycloastragenol]
Telomerase activity Average ([2]; 0.06 μM): 1387.33
Telomerase activity Replicate 1 ([2]; 0.06 μM): 925.83
Telomerase activity Replicate 2 ([2]; 0.06 μM): 1848.83
Telomerase activity Average ([2]; 0.13 μM): 1916.83
Telomerase activity Replicate 1 ([2]; 0.13 μM): 2080.83
Telomerase activity Replicate 2 ([2]; 0.13 μM): 1752.83
Telomerase activity Average ([2]; 0.25 μM): 5523.83
Telomerase activity Replicate 1 ([2]; 0.25 μM): 5415.83
Telomerase activity Replicate 2 ([2]; 0.25 μM): 5631.83
Telomerase activity Average ([2]; 0.50 μM): 7501.33
Telomerase activity Replicate 1 ([2]; 0.50 μM): 7834.83
Telomerase activity Replicate 2 ([2]; 0.50 μM): 7167.83
Telomerase activity Average ([2]; 1.00 μM): 15556.33
Telomerase activity Replicate 1 ([2]; 1.00 μM): 15590.83
Telomerase activity Replicate 2 ([2]; 1.00 μM): 15521.83
Telomerase activity Average ([2]; 3.00 μM): 21909.33
Telomerase activity Replicate 1 ([2]; 3.00 μM): 20995.83
Telomerase activity Replicate 2 ([2]; 3.00 μM): 22822.83
pEC50 ([2]; half-maximal telomerase activation, human cells): 6.10
EC50 (telomerase activation) ([2]; same value in mass units): (0.39 μg/mL

COC(=O)CCC(=O)NC(C)C(=O)NC(C)C(=O)N1CCCC1C(=O)NC(C(=O)CCl)C(C)C (stereo not drawn) [N-methoxysuccinyl-Ala-Ala-Pro-Val-chloromethyl ketone] (MeOSuc-AAPV-CH2Cl; configuration not given here)
Concentration inducing the maximum inhibition (elastase) [3]: 250 µM
inhibition at 250 µM ([3]; Conc. 250.00 uM, read-out: Inhibition (%) Average): 87.7%
inhibition at 250 µM ([3]; Conc. 250.00 uM, read-out: Inhibition (%) Relicate 1): 87.6%
inhibition at 250 µM ([3]; Conc. 250.00 uM, read-out: Inhibition (%) Replicate 2): 87.8%
inhibition at 0.12 µM [3, 5]: 10.3%
inhibition at 0.24 µM [3, 5]: 18.2%
inhibition at 0.49 µM [3, 5]: 30.3%
inhibition at 0.98 µM [3, 5]: 45.7%
inhibition at 1.95 µM [3, 5]: 59.2%
inhibition at 3.91 µM [3, 5]: 68.7%
inhibition at 7.81 µM [3, 5]: 76.3%
inhibition at 15.63 µM [3, 5]: 81%
inhibition at 31.25 µM [3, 5]: 84.4%
inhibition at 62.5 µM [3, 5]: 86.1%
inhibition at 125 µM [3, 5]: 87.2%
inhibition at 0.12 µM [3, 6]: 10.1%
inhibition at 0.24 µM [3, 6]: 18.3%
inhibition at 0.49 µM [3, 6]: 29.9%
inhibition at 0.98 µM [3, 6]: 45.3%
inhibition at 1.95 µM [3, 6]: 58.8%
inhibition at 3.91 µM [3, 6]: 68.5%
inhibition at 7.81 µM [3, 6]: 76.2%
inhibition at 15.63 µM [3, 6]: 81.1%
inhibition at 31.25 µM [3, 6]: 84.3%
inhibition at 62.5 µM [3, 6]: 86%
inhibition at 125 µM [3, 6]: 87.1%
inhibition at 0.12 µM [3, 7]: 10.5%
inhibition at 0.24 µM [3, 7]: 18.2%
inhibition at 0.49 µM [3, 7]: 30.6%
inhibition at 0.98 µM [3, 7]: 46.1%
inhibition at 1.95 µM [3, 7]: 59.6%
inhibition at 3.91 µM [3, 7]: 69%
inhibition at 7.81 µM [3, 7]: 76.3%
inhibition at 15.63 µM [3, 7]: 80.8%
inhibition at 31.25 µM [3, 7]: 84.5%
inhibition at 62.5 µM [3, 7]: 86.2%
inhibition at 125 µM [3, 7]: 87.3%
inhibition at 250 µM ([3]; read-out: Maximum inhibition achieved (elastase)): 87.7%

CCN(CC)CCCC(C)Nc1ccnc2cc(Cl)ccc12 (stereo not drawn) [chloroquine, Chloroquine]
Concentration inducing the maximum inhibition [4]: 10 µM
EC50 ([4]; Homo sapiens): 0.74 µg/mL and 1.43 µM
pEC50 ([4]; Homo sapiens, 72 h, read-out: EC50 (melanin production inhibition)): 5.84
inhibition at 10 µM ([4]; Homo sapiens, read-out: Maximum inhibition achieved): 88.1%
inhibition at 0.31 µM [4, 8]: 0.92%
inhibition at 0.63 µM [4, 8]: 16.1%
inhibition at 1.25 µM [4, 8]: 34.3%
inhibition at 2.5 µM [4, 8]: 76.1%
inhibition at 5 µM [4, 8]: 83.1%
inhibition at 10 µM [4, 8]: 88.1%
inhibition at 0.31 µM [4, 9]: 1.77%
inhibition at 0.63 µM [4, 9]: 15.5%
inhibition at 1.25 µM [4, 9]: 36.5%
inhibition at 2.5 µM [4, 9]: 76.6%
inhibition at 5 µM [4, 9]: 79.8%
inhibition at 10 µM [4, 9]: 85.7%
inhibition at 0.31 µM [4, 10]: 0.06%
inhibition at 0.63 µM [4, 10]: 16.7%
inhibition at 1.25 µM [4, 10]: 32.1%
inhibition at 2.5 µM [4, 10]: 75.6%
inhibition at 5 µM [4, 10]: 86.4%
inhibition at 10 µM [4, 10]: 90.5%
